From PubChem BioAssay AID248 (DTP/NCI, 2004)
Inconclusive results and toxic doses are left out.

Tested on: L1210 leukemia ip in BDF1 mice, survival T/C
Assay: NCI In Vivo Anticancer Drug Screen. Data for tumor model L1210 Leukemia (intraperitoneal) in B6D2F1 (BDF1) mice
Settings: endpoint: mean survival time, higher = longer survival
Procedure, shortened: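 Each compound was tested against a transplantable tumor grown in mice. The endpoint was survival, with treated animals benchmarked against vehicle controls as a simple ratio.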

[1] = dose: 100.0 mg/kg/injection, schedule: Q01DX009 (ip), vehicle: saline with Tween-80
[2] = dose: 100.0 mg/kg/injection, schedule: Q04DX002 (ip), vehicle: Klucel (hydroxypropylcellulose) (HPC)
[3] = dose: 200.0 mg/kg/injection, schedule: Q04DX002 (ip), vehicle: Klucel (hydroxypropylcellulose) (HPC)
[4] = dose: 100.0 mg/kg/injection, schedule: Q04DX003 (ip), vehicle: saline with Tween-80
[5] = dose: 200.0 mg/kg/injection, schedule: Q04DX003 (ip), vehicle: saline with Tween-80
[6] = dose: 100.0 mg/kg/injection, schedule: Q04DX002 (ip), vehicle: saline with Tween-80
[7] = dose: 200.0 mg/kg/injection, schedule: Q04DX002 (ip), vehicle: saline with Tween-80
[8] = dose: 400.0 mg/kg/injection, schedule: Q04DX002 (ip), vehicle: saline with Tween-80

Q: Which results are given for `COc1cc(CC(=O)O)ccc1OCc1ccccc1`?
A: T/C [1]: 101 % of control; T/C (dose: 200.0 mg/kg/injection, schedule: Q01DX009 (ip), vehicle: saline with Tween-80): 101 % of control; T/C (dose: 400.0 mg/kg/injection, schedule: Q01DX009 (ip), vehicle: saline with Tween-80): 116 % of control

Q: How did the T/C (dose: 100.0 mg/kg/injection, schedule: Q01DX001 (ip), vehicle: saline) turn out when `[N-]=[N+]=NC1=NN2NNN=C2C(N)=C1` was run?
A: Its T/C is 105 % of control.

Q: What about the T/C (dose: 200.0 mg/kg/injection, schedule: Q01DX001 (ip), vehicle: saline) of the same compound?
A: Its T/C is 107 % of control.

Q: How did the T/C (dose: 75.0 mg/kg/injection, schedule: Q01DX001 (ip), vehicle: Klucel (hydroxypropylcellulose) (HPC)) turn out when `CC(=O)Nc1c(C)c(NC(C)=O)c(C)c(NC(C)=O)c1C` was run?
A: Its T/C is 90 % of control.

Q: And the T/C (dose: 75.0 mg/kg/injection, schedule: Q01DX009 (ip), vehicle: Klucel (hydroxypropylcellulose) (HPC))?
A: The T/C was 94 % of control.

Q: And the T/C (dose: 150.0 mg/kg/injection, schedule: Q01DX001 (ip), vehicle: Klucel (hydroxypropylcellulose) (HPC))?
A: Its T/C is 101 % of control.

Q: What about the T/C (dose: 300.0 mg/kg/injection, schedule: Q01DX001 (ip), vehicle: Klucel (hydroxypropylcellulose) (HPC)) of the same compound?
A: Its T/C is 92 % of control.

Q: What does the source list for `O=C(O)c1c2ccccc2nc2[nH]c(=O)[nH]c(=O)c12`?
A: T/C [2]: 97 % of control; T/C [3]: 108 % of control; T/C (dose: 400.0 mg/kg/injection, schedule: Q04DX002 (ip), vehicle: Klucel (hydroxypropylcellulose) (HPC)): 108 % of control

Q: `CCOC(=O)c1ccc(NC(C)=O)o1` was tested. Which T/C (dose: 10.0 mg/kg/injection, schedule: Q01DX001 (ip), vehicle: carboxymethylcellulose (CMC)) did it give?
A: The T/C was 107 % of control.

Q: What about the T/C (dose: 20.0 mg/kg/injection, schedule: Q01DX001 (ip), vehicle: carboxymethylcellulose (CMC)) of the same compound?
A: Its T/C is 95 % of control.

Q: And the T/C (dose: 40.0 mg/kg/injection, schedule: Q01DX001 (ip), vehicle: carboxymethylcellulose (CMC))?
A: The T/C was 103 % of control.

Q: What about the T/C (dose: 80.0 mg/kg/injection, schedule: Q01DX001 (ip), vehicle: carboxymethylcellulose (CMC)) of the same compound?
A: Its T/C is 92 % of control.

Q: Which results are given for `Nc1nc(CNc2ccc(Cl)cc2)nc(Nc2ccccc2)n1`?
A: T/C [4]: 93 % of control; T/C [5]: 89 % of control; T/C (dose: 400.0 mg/kg/injection, schedule: Q04DX003 (ip), vehicle: saline with Tween-80): 89 % of control

Q: Which T/C [4] does the source give for `C[n+]1ccn(Cc2ccc([N+](=O)[O-])cc2)c1` here?
A: Its T/C is 171 % of control.

Q: What about the T/C [5] of the same compound?
A: Its T/C is 90 % of control.

Q: What does the source list for `O=C(CCl)N1CCC(C(O)c2cc3ccccc3n2S(=O)(=O)c2ccccc2)CC1` (stereo unspecified)?
A: T/C [6]: 94 % of control; T/C [7]: 94 % of control; T/C [8]: 97 % of control

Q: For `O=S(=O)(O)c1ccc2cc(N=Nc3c(O)ccc4ccccc34)ccc2c1`, which T/C (dose: 100.0 mg/kg/injection, schedule: Q04DX003 (ip), vehicle: carboxymethylcellulose (CMC)) is on record?
A: The T/C was 95 % of control.

Q: What about the T/C (dose: 200.0 mg/kg/injection, schedule: Q04DX003 (ip), vehicle: carboxymethylcellulose (CMC)) of the same compound?
A: The T/C was 103 % of control.

Q: What about the T/C (dose: 400.0 mg/kg/injection, schedule: Q04DX003 (ip), vehicle: carboxymethylcellulose (CMC)) of the same compound?
A: Its T/C is 95 % of control.

Q: Which results are given for `c1ccc(-c2cn[nH]c2-c2ccccc2)cc1`?
A: T/C [6]: 103 % of control; T/C [7]: 100 % of control; T/C [8]: 106 % of control

Q: For `NC(N)=NN=C(c1ccccc1)c1ccccc1`, which T/C (dose: 15.0 mg/kg/injection, schedule: Q01DX Z (ip), vehicle: other) is on record?
A: The T/C was 101 % of control.

Q: And the T/C (dose: 30.0 mg/kg/injection, schedule: Q01DX Z (ip), vehicle: other)?
A: The T/C was 98 % of control.

Q: What about the T/C (dose: 60.0 mg/kg/injection, schedule: Q01DX Z (ip), vehicle: other) of the same compound?
A: The T/C was 106 % of control.

Q: `CN(C)c1ccc(N(C)C)nn1` was tested. Which T/C [1] did it give?
A: Its T/C is 104 % of control.

Q: What does the source list for `CCOC(=O)CNc1ccc(Br)cc1`?
A: T/C [2]: 108 % of control; T/C [3]: 108 % of control

Q: For `C[N+]12CCCc3cc(CO)cc(c31)CCC2`, which T/C (dose: 12.5 mg/kg/injection, schedule: Q01DX009 (ip), vehicle: Klucel (hydroxypropylcellulose) (HPC)) is on record?
A: The T/C was 101 % of control.

Q: What about the T/C (dose: 12.5 mg/kg/injection, schedule: Q04DX003 (ip), vehicle: Klucel (hydroxypropylcellulose) (HPC)) of the same compound?
A: The T/C was 97 % of control.

Q: What about the T/C (dose: 25.0 mg/kg/injection, schedule: Q01DX009 (ip), vehicle: Klucel (hydroxypropylcellulose) (HPC)) of the same compound?
A: The T/C was 105 % of control.

Q: And the T/C (dose: 25.0 mg/kg/injection, schedule: Q04DX003 (ip), vehicle: Klucel (hydroxypropylcellulose) (HPC))?
A: The T/C was 92 % of control.

Q: What about the T/C (dose: 50.0 mg/kg/injection, schedule: Q04DX003 (ip), vehicle: Klucel (hydroxypropylcellulose) (HPC)) of the same compound?
A: The T/C was 97 % of control.
